According to publication PMC5546122, “Effects of Fungicides on Rat's Neurosteroid Synthetic Enzymes” (BioMed Research International, 2017):
Read-outs that look alike come from different tables or passages of the source.

Legend:
[1] = molecular target: T1, 3α-HSD (3α-hydroxysteroid dehydrogenase; AKR1C14) (Rattus norvegicus, UniProt P23457); experiment: radiometric TLC enzyme assay, transfected COS-1 cytosol; type: biochemical
T1 construct: gene Akr1c9; Akr1c14 in pRc/CMV, transient expression in COS-1 cells, cytosolic fraction
T1 sequence (P23457 1-322): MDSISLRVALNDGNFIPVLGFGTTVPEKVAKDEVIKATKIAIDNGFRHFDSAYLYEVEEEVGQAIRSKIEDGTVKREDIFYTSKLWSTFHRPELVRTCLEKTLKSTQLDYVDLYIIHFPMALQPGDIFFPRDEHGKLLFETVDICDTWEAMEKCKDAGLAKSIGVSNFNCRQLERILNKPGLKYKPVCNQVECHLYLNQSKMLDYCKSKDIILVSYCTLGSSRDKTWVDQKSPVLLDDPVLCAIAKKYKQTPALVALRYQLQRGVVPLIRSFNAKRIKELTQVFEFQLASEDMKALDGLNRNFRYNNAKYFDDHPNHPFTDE
Source text: radiometric TLC enzyme assay, transfected COS-1 cytosol on 3α-HSD (3α-hydroxysteroid dehydrogenase; AKR1C14)

[2] = molecular target: T2, 5α-Red1 (5α-reductase 1; SRD5A1) (Rattus norvegicus, UniProt P24008); experiment: radiometric TLC enzyme assay, transfected COS-1 microsomes; type: biochemical
T2 construct: Srd5a1 in pcDNA1.1, transient expression in COS-1 cells, microsomal fraction
T2 sequence (P24008 1-259): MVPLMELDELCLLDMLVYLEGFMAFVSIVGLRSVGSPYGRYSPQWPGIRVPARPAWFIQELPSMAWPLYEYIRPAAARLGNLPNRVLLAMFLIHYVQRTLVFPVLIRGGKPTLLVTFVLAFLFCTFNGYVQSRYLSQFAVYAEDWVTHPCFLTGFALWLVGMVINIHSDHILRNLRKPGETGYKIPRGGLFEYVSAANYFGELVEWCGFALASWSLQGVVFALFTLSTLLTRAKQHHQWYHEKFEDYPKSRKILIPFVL
Source text: radiometric TLC enzyme assay, transfected COS-1 microsomes on 5α-Red1 (5α-reductase 1; SRD5A1)

[3] = molecular target: T3, RDH2 (retinol dehydrogenase 2) (Rattus norvegicus, UniProt P50170); experiment: as above; type: biochemical
T3 construct: gene Rdh16; full-length cDNA in pcDNA1.1, transient expression in COS-1 cells, microsomal fraction
T3 sequence (P50170 1-317): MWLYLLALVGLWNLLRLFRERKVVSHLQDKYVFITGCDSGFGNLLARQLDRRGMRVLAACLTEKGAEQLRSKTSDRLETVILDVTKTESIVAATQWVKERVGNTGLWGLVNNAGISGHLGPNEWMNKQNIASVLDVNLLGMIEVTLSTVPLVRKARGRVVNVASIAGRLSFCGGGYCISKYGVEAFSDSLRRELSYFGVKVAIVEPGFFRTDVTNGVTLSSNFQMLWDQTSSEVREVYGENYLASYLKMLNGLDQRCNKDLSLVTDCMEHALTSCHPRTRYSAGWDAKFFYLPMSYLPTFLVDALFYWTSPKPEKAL
Source text: radiometric TLC enzyme assay, transfected COS-1 microsomes on RDH2 (retinol dehydrogenase 2)

[4] = molecular target: T3, RDH2 (retinol dehydrogenase 2); experiment: as above; type: biochemical; details: read-out: % of control activity at 100 μM
[5] = molecular target: T2, 5α-Red1 (5α-reductase 1; SRD5A1); experiment: as above; type: biochemical; details: read-out: % of control activity at 100 μM
[6] = substrate: C[C@]12CC[C@@H](O)C[C@@H]1CC[C@@H]1[C@@H]2CC[C@]2(C)[C@@H](O)CC[C@@H]12; experiment: cells, lysate or membranes; details: 0.2 mM NAD+, 0.0315–10 µM DIOL, PBS pH 7.2, radiolabelled tracer
[7] = substrate: C[C@]12CCC(=O)C[C@@H]1CC[C@@H]1[C@@H]2CC[C@]2(C)[C@@H](O)CC[C@@H]12; experiment: cells, lysate or membranes; details: 0.2 mM NADPH, 0.0315–10 µM dihydrotestosterone, PBS pH 7.2, radiolabelled tracer
[8] = substrate: C[C@]12CC[C@H]3[C@@H](CCC4=CC(=O)CC[C@@]43C)[C@@H]1CC[C@@H]2O; experiment: cells, lysate or membranes; details: 0.2 mM NADPH, 0.0315–10 µM testosterone, PBS pH 7.2, radiolabelled tracer

Molecule: CC(C)(C)C(O)(CCc1ccc(Cl)cc1)Cn1cncn1 (stereo not drawn) [tebuconazole]
- IC50 [1]: ~100 µM
- IC50 [2]: 8.67 ± 0.771 µM
- IC50 ([3]; read-out: 3α-HSD): > 100 µM

Molecule: CC(C)(C)C(=O)C(Oc1ccc(Cl)cc1)n1cncn1 (stereo not drawn) [triadimefon]
- IC50 [1]: 26.49 ± 0.076 µM
- IC50 [2]: 17.39 ± 0.079 µM
- IC50 ([3]; read-out: RDH2): > 100 µM

Molecule: C=CC1(C)OC(=O)N(c2cc(Cl)cc(Cl)c2)C1=O (stereo not drawn) [vinclozolin]
- IC50 [1]: ~100 µM
- remaining activity at 100 µM [4]: 85.5 ± 2.2%
- remaining activity at 100 µM [5]: 74.2 ± 5.57%

B1: RDH2 (retinol dehydrogenase 2) (Rattus norvegicus) (protein)
chain: MWLYLLALVGLWNLLRLFRERKVVSHLQDKYVFITGCDSGFGNLLARQLDRRGMRVLAACLTEKGAEQLRSKTSDRLETVILDVTKTESIVAATQWVKERVGNTGLWGLVNNAGISGHLGPNEWMNKQNIASVLDVNLLGMIEVTLSTVPLVRKARGRVVNVASIAGRLSFCGGGYCISKYGVEAFSDSLRRELSYFGVKVAIVEPGFFRTDVTNGVTLSSNFQMLWDQTSSEVREVYGENYLASYLKMLNGLDQRCNKDLSLVTDCMEHALTSCHPRTRYSAGWDAKFFYLPMSYLPTFLVDALFYWTSPKPEKAL
- Km [6]: 2.850 ± 0.037 µM
- Vmax [6]: 0.00053 µmol/min/mg

B2: 3α-HSD (3α-hydroxysteroid dehydrogenase; AKR1C14) (Rattus norvegicus) (protein)
chain: MDSISLRVALNDGNFIPVLGFGTTVPEKVAKDEVIKATKIAIDNGFRHFDSAYLYEVEEEVGQAIRSKIEDGTVKREDIFYTSKLWSTFHRPELVRTCLEKTLKSTQLDYVDLYIIHFPMALQPGDIFFPRDEHGKLLFETVDICDTWEAMEKCKDAGLAKSIGVSNFNCRQLERILNKPGLKYKPVCNQVECHLYLNQSKMLDYCKSKDIILVSYCTLGSSRDKTWVDQKSPVLLDDPVLCAIAKKYKQTPALVALRYQLQRGVVPLIRSFNAKRIKELTQVFEFQLASEDMKALDGLNRNFRYNNAKYFDDHPNHPFTDE
- Km [7]: 3.148 ± 0.197 µM
- Vmax [7]: 6.67e-05 µmol/min/mg

B3: 5α-Red1 (5α-reductase 1; SRD5A1) (Rattus norvegicus) (protein)
chain: MVPLMELDELCLLDMLVYLEGFMAFVSIVGLRSVGSPYGRYSPQWPGIRVPARPAWFIQELPSMAWPLYEYIRPAAARLGNLPNRVLLAMFLIHYVQRTLVFPVLIRGGKPTLLVTFVLAFLFCTFNGYVQSRYLSQFAVYAEDWVTHPCFLTGFALWLVGMVINIHSDHILRNLRKPGETGYKIPRGGLFEYVSAANYFGELVEWCGFALASWSLQGVVFALFTLSTLLTRAKQHHQWYHEKFEDYPKSRKILIPFVL
- Km [8]: 1.397 ± 0.35 µM
- Vmax [8]: 3.49e-06 µmol/min/mg
